≈ marks a conversion by molar mass, not a printed value. Where two headings read alike, the source gives them in different places.
Columns and labels:
THP-1 cells = experiment: In vitro cytotoxicity assay (WST-1); assay type: cell-based; conditions: Homo sapiens; THP-1, 24 h, ± SD, n = 6; read-out: IC50
Method: Preliminary in vitro cytotoxicity screening of the investigated compounds was performed using human monocytic leukemia THP-1 cells, see Table 2. The ability to inhibit the human cancer cell viability (IC50) of the compounds was compared to camptothecin toxicity (0.16 ± 0.07 μM). […] However, these values are up to two orders of magnitude higher than their significant antistaphyloccocal concentrations. This fact is also taken into account in the calculated selectivity index (SI), Table 2, where for only three compounds the SI is <20, while for the rest of the agents SI is >20, and for some derivatives even 100 and more. Thus, based on all these observations, it can be concluded that all the tested derivatives can be considered as in vitro non-toxic compounds for the subsequent design of new therapeutic agents.
The human THP-1 cell line (European Collection of Cell Cultures, Salisbury, UK) was cultured in RPMI 1640 medium supplemented with 10% fetal bovine serum, 2% L-glutamine, 1% penicillin, and streptomycin at 37 °C with 5% CO2. Cells were passaged at approximately 1-week intervals. All the tested compounds were prepared and dissolved as mentioned in our previous work.

MRSA SA 630 [1] = experiment: MIC, microtitration broth method; assay type: cell-based; conditions: Staphylococcus aureus
Method: (§1) All the investigated compounds were screened for in vitro antibacterial activity against the reference and quality control strain Staphylococcus aureus ATCC 29213 and clinical isolates of methicillin-resistant S. aureus (MRSA) 63718, SA 630, and SA 3202 [14]. Activities are expressed as the minimum inhibitory concentrations (MICs), see Table 2. In addition to the MICs, the minimum bactericidal concentrations (MBCs) were also determined.
(§2) In vitro antibacterial activity of the synthesized compounds was evaluated against representatives of multidrug-resistant bacteria, three clinical isolates of methicillin-resistant S. aureus: clinical isolate of animal origin, MRSA 63718 (Department of Infectious Diseases and Microbiology, Faculty of Veterinary Medicine, University of Veterinary Sciences Brno, Czech Republic), carrying the mecA gene; and MRSA SA 630 [46] and MRSA SA 3202 [46] (National Institute of Public Health, Prague, Czech Republic), both of human origin. Suspected colonies were confirmed by PCR; a 108bp fragment specific for S. aureus was detected. All isolates were tested for the presence of the mecA gene encoding methicillin resistance. […] Vancomycin-susceptible methicillin-susceptible S. aureus (VS-MSSA) ATCC 29213, obtained from the American Type Culture Collection, was used as the reference and quality control strain. Enterococcus faecalis ATCC 29212 was obtained from the American Type Culture Collection and used as the reference and quality control strain.
(§3) The minimum inhibitory concentrations (MICs) were evaluated by the microtitration broth method according to the CLSI [64, 65] with some modifications. The compounds were dissolved in DMSO (Sigma, St. Louis, MO, USA) to get a concentration […] and diluted in a microtitration plate in an appropriate medium, namely, Cation Adjusted Mueller–Hinton (CaMH, Oxoid, Basingstoke, UK) for staphylococci (S. aureus ATCC 29213, clinical isolates of MRSA 63718, SA 630, and SA 3202) and brain heart infusion (BHI, Oxoid) for E. faecalis ATCC 29212, to reach the final concentration of 256-0.125 µg/mL. The plate was inoculated by the tested microorganisms. The final concentration of bacterial cells was 10^5 for bacteria. Ampicillin (Sigma) was used as reference drugs. A drug-free control and a sterility control were included. The plates were incubated for 24 h at 37 °C for staphylococci and E. faecalis ATCC 29212 (stability evaluation of the carbamates, see Supplementary materials, Table S1). […] The experiments were repeated three times.

MRSA SA 3202 [2] = experiment: MIC, microtitration broth method; assay type: cell-based; conditions: Staphylococcus aureus
Method: as §1, §2, §3

[3] = tested on: Staphylococcus aureus ATCC 29213; experiment: MIC, microtitration broth method; assay type: cell-based; conditions: ATCC29213, SA = S. aureus ATCC 29213, 24 h, read-out: MIC
Method: as §1, §2, §3

MRSA 63718 [4] = experiment: MIC, microtitration broth method; assay type: cell-based; conditions: Staphylococcus aureus
Method: as §1, §2, §3

[5] = tested on: Enterococcus faecalis ATCC 29212; experiment: MIC, microtitration broth method; assay type: cell-based; conditions: ATCC29212; EF = Enterococcus faecalis, 24 h; read-out: MIC
Method: as §2, §3

[6] = Lipophilicity determination by RP-HPLC (log k, log D); assay type: physicochemical; conditions: for log D6.5 / log D7.4 / log k: RP-HPLC; for log D6.5: MeOH 72%/acetate buffered saline pH 6.5; for log D7.4: MeOH 72%/acetate buffered saline pH 7.4; for log k: MeOH 72%/water 28%
Method: Lipophilicity was measured by reversed-phase high performance liquid chromatography (RP-HPLC) under isocratic conditions with methanol as the organic modifier in the aqueous mobile phase and the logarithm of the capacity factor k was calculated, which is used as the lipophilicity index converted to the log P scale. In addition to the log k values, the logarithm of the distribution coefficient DpH at pH 6.5 and 7.4 was determined to clarify the behavior of the compounds under physiological conditions and possible ionization. Instead of water, a buffer of suitable pH was used as part of the mobile phase. In addition to the above-mentioned experimental methods, commercially available ChemBioDraw Ultra 13.0 and ACD/Percepta ver. […] In addition to lipophilicity, other parameters discussed in Ro5, such as molecular weight, number of H-bond donors/acceptors, as well as parameters not reported in Ro5, but characterizing the physicochemical properties of the prepared molecules, such as number of rotatable bonds, were predicted using ACD/Percepta. Moreover, for each R substituent, bulkiness expressed as molar volume (MV [cm^3]), a parameter describing the tail length/branching of each carbamates, was calculated.
A HPLC separation module Agilent 1200 Series (Agilent Technologies, Santa Clara, CA, USA) equipped with a Dual Absorbance Detector (DAD SL G1315C, Agilent Technologies) was used. A chromatographic column Symmetry® C18 5 μm, 4.6 × 250 mm, Part No. W21751W016 (Waters Corp, Milford, MA, USA) was used. The HPLC separation process was monitored by ChemStation for LC 3D systems (Agilent Technologies). […] The total flow of the column was 1.0 mL/min, injection 20 μL, column temperature 40 °C, and sample temperature 10 °C. The detection wavelength of 210 nm was chosen. A KI methanolic solution was used for the determination of the dead times (tD). Retention times (tR) were measured in minutes. The capacity factors k were calculated according to the formula k = (tR − tD)/tD, where tR is the retention time of the solute, and tD is the dead time obtained using an unretained analyte. The distribution coefficients DpH were calculated according to the formula DpH = (tR − tD)/tD. Each experiment was repeated three times.

[7] = tested on: S. aureus and MRSA isolates; experiment: Antistaphylococcal MIC, summary over strains; assay type: cell-based, Staphylococcus aureus
Method: as §1, with “determined. […] MBC values that meet this requirement, i.e., the compound is bactericidal, are indicated in bold in Table 2.” for “determined.”
as §2
The minimum inhibitory concentrations (MICs) were evaluated by the microtitration broth method according to the CLSI [64, 65] with some modifications. […]

MRSA SA 630 [8] = experiment: MBC, agar aliquot subculture method; assay type: cell-based; conditions: Staphylococcus aureus
Method: as §1
(§4) For the S. aureus and MRSA isolates, the agar aliquot subculture method was used as a test for bactericidal agents. After the MIC value determination, the inoculum was transferred to Mueller–Hinton (Oxoid) agar using a multipoint inoculator. The plates were incubated in a thermostat at 37 °C for 24 h. The lowest concentration of test compound at which ≤5 colonies were obtained was then evaluated as MBC, corresponding to a 99.9% decrease in CFU relative to the original inoculum.

MRSA SA 3202 [9] = experiment: MBC, agar aliquot subculture method; assay type: cell-based; conditions: Staphylococcus aureus
Method: as §1, §4

[10] = tested on: Staphylococcus aureus ATCC 29213; experiment: MBC, agar aliquot subculture method; assay type: cell-based; conditions: ATCC29213, SA = S. aureus ATCC 29213, read-out: MBC
Method: as §1, §4

MRSA 63718 [11] = experiment: MBC, agar aliquot subculture method; assay type: cell-based; conditions: Staphylococcus aureus, MRSA
Method: as §1, §4

In the case of `CCCCNC(=O)Oc1c(C(=O)Nc2cc(Cl)c(Cl)cc2Cl)ccc2ccccc12` [Compound 4, 2-[N-(2,4,5-Trichlorophenyl)carbamoyl]naphthalen-1-yl butyl carbamate], the IC50 (THP-1 cells) is reported as 3.42 ± 0.1 µM, the MIC (MRSA SA 630 [1]; 24 h) is reported as 0.017 µM (≈ 0.00792 µg/mL) and the MIC (MRSA SA 3202 [2]; 24 h) is reported as 0.069 µM (≈ 0.0321 µg/mL). It also gave an MIC [3] of 0.034 µM (≈ 0.0158 µg/mL), an MIC (MRSA 63718 [4]; MRSA, 24 h) of 0.135 µM (≈ 0.0629 µg/mL) and an MIC [5] of 275 µM (≈ 128 µg/mL). The “log D6.5” value [6] was 0.9980, the “log D7.4” value [6] was 1.1401 and the log k [6] was 1.0756. It also gave an MIC ([7]; Staphylococcus aureus, read-out: MICs) of 0.018 to 0.064 µM (≈ 0.00838 to 0.0298 µg/mL), an MBC (MRSA SA 630 [8]) of 0.537 µM (≈ 0.25 µg/mL) and an MBC (MRSA SA 3202 [9]) of 0.069 µM (≈ 0.0321 µg/mL). For the same compound, the MBC [10] was 0.034 µM (≈ 0.0158 µg/mL) and the MBC (MRSA 63718 [11]) was 0.268 µM (≈ 0.125 µg/mL).
`CCCCCCNC(=O)Oc1c(C(=O)Nc2cc(Cl)c(Cl)cc2Cl)ccc2ccccc12` [Compound 6, 2-[N-(2,4,5-Trichlorophenyl)carbamoyl]naphthalen-1-yl hexyl carbamate] showed an IC50 (THP-1 cells) of 3.2 ± 0.19 µM, an MIC (MRSA SA 630 [1]; 24 h) of 0.253 µM (≈ 0.125 µg/mL) and an MIC (MRSA SA 3202 [2]; 24 h) of 0.253 µM (≈ 0.125 µg/mL). The MIC [3] was 0.128 µM (≈ 0.0632 µg/mL), the MIC (MRSA 63718 [4]; MRSA, 24 h) was 0.253 µM (≈ 0.125 µg/mL) and the MIC [5] was 259 µM (≈ 128 µg/mL). The “log D6.5” value [6] was 1.4899, the “log D7.4” value [6] was 1.4990 and the log k [6] was 1.4883. The MBC (MRSA SA 630 [8]) was 0.506 µM (≈ 0.25 µg/mL), the MBC (MRSA SA 3202 [9]) was 0.253 µM (≈ 0.125 µg/mL) and the MBC [10] was 0.128 µM (≈ 0.0632 µg/mL). It also gave an MBC (MRSA 63718 [11]) of 0.253 µM (≈ 0.125 µg/mL).
In the case of `CCCCCCCCNC(=O)Oc1c(C(=O)Nc2cc(Cl)c(Cl)cc2Cl)ccc2ccccc12` [Compound 8, 2-[N-(2,4,5-Trichlorophenyl)carbamoyl]naphthalen-1-yl octyl carbamate], the IC50 (THP-1 cells) is reported as 2.61 ± 0.32 µM, the MIC (MRSA SA 630 [1]; 24 h) is reported as 0.479 µM (≈ 0.25 µg/mL) and the MIC (MRSA SA 3202 [2]; 24 h) is reported as 1.92 µM (≈ 1 µg/mL). The MIC [3] was 0.479 µM (≈ 0.25 µg/mL), the MIC (MRSA 63718 [4]; MRSA, 24 h) was 0.958 µM (≈ 0.5 µg/mL) and the MIC [5] was 123 µM (≈ 64.2 µg/mL). For the same compound, the “lipophilicity (experimental log k/log D, approximate)” value [6] was “ca. 1.87”, the “log D6.5” value [6] was 1.8687 and the “log D7.4” value [6] was 1.8785. The log k [6] was 1.8654, the MBC (MRSA SA 630 [8]) was 1.92 µM (≈ 1 µg/mL) and the MBC (MRSA SA 3202 [9]) was 1.92 µM (≈ 1 µg/mL). It also gave an MBC [10] of 0.958 µM (≈ 0.5 µg/mL) and an MBC (MRSA 63718 [11]) of 1.92 µM (≈ 1 µg/mL).
Work on `O=C(Nc1cc(Cl)c(Cl)cc1Cl)c1ccc2ccccc2c1O` [Compound 1, 1-hydroxy-N-(2,4,5-trichlorophenyl)-2-naphthamide] yielded an IC50 (THP-1 cells) of over 30 µM, an MIC (MRSA SA 630 [1]; MRSA2 = SA 630, 24 h, read-out: MIC) of 698 µM (≈ 256 µg/mL) and an MIC (MRSA SA 3202 [2]; MRSA3 = SA 3202, 24 h, read-out: MIC) of 698 µM (≈ 256 µg/mL). It also gave an MIC [3] of 698 µM (≈ 256 µg/mL), an MIC (MRSA 63718 [4]; MRSA1 = MRSA 63718, 24 h, read-out: MIC) of 698 µM (≈ 256 µg/mL) and an MIC [5] of 477 µM (≈ 175 µg/mL). The “log D6.5” value [6] was 0.5782, the “log D7.4” value [6] was 0.5384 and the log k [6] was 0.6600. The “antistaphylococcal/antibacterial activity (in words)” value ([7]; S. aureus and MRSA isolates) was “no antibacterial activity”.
